Reference: the supplement of paper PMC10307832

Key:
Experiment in all cases: relative viability (nuclei count vs DMSO), 5 days (fraction); higher = more cells survive
[1] = compound: NC(=O)[C@@H](CCC(F)(F)F)N(Cc1ccc(-c2ncon2)cc1F)S(=O)(=O)c1ccc(Cl)cc1 [Avagacestat] + CC(=O)c1c(C)c2cnc(Nc3ccc(N4CCNCC4)cn3)nc2n(C2CCCC2)c1=O [Palbociclib] (partner 0.5 µM)
Procedure, shortened: (§1)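 Cells from lung cancer lines were seeded into 1536-well plates and, one day later, dosed by pin tool. Treatments were either a single drug or a fixed dose of an anchor drug with five library-drug doses (not always all listed) in √10 steps. After 5 days, nuclei were stained in a one-step fixation (final 0.05% Triton X-100, 1% formaldehyde, 1 ug/ml Hoechst) and counted on 4× images, and relative viability is the treated-to-vehicle nuclei ratio, as the median of duplicate plates.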

Avagacestat + Pictilisib = compound: NC(=O)[C@@H](CCC(F)(F)F)N(Cc1ccc(-c2ncon2)cc1F)S(=O)(=O)c1ccc(Cl)cc1 [Avagacestat] + CS(=O)(=O)N1CCN(Cc2cc3nc(-c4cccc5[nH]ncc45)nc(N4CCOCC4)c3s2)CC1 [Pictilisib] (partner 1 µM)
Procedure, shortened: as §1

Avagacestat + Phenformin = compound: NC(=O)[C@@H](CCC(F)(F)F)N(Cc1ccc(-c2ncon2)cc1F)S(=O)(=O)c1ccc(Cl)cc1 [Avagacestat] + N=C(N)NC(=N)NCCc1ccccc1 [Phenformin] (partner 250 µM)
Procedure, shortened: as §1

Avagacestat + Decitabine = compound: NC(=O)[C@@H](CCC(F)(F)F)N(Cc1ccc(-c2ncon2)cc1F)S(=O)(=O)c1ccc(Cl)cc1 [Avagacestat] + Nc1ncn([C@H]2C[C@H](O)[C@@H](CO)O2)c(=O)n1 [Decitabine] (partner 2 µM)
Procedure, shortened: as §1

Row | Cell Line | relative viability ([1]; first compound 0.08 µM) | relative viability ([1]; first compound 0.253 µM) | relative viability ([1]; first compound 0.8 µM) | relative viability ([1]; first compound 2.53 µM) | relative viability ([1]; first compound 8 µM) | relative viability (Avagacestat + Pictilisib; first compound 0.08 µM) | relative viability (Avagacestat + Pictilisib; first compound 0.253 µM) | relative viability (Avagacestat + Pictilisib; first compound 0.8 µM) | relative viability (Avagacestat + Pictilisib; first compound 2.53 µM) | relative viability (Avagacestat + Pictilisib; first compound 8 µM) | relative viability (Avagacestat + Phenformin; first compound 0.08 µM) | relative viability (Avagacestat + Phenformin; first compound 0.253 µM) | relative viability (Avagacestat + Phenformin; first compound 0.8 µM) | relative viability (Avagacestat + Phenformin; first compound 2.53 µM) | relative viability (Avagacestat + Phenformin; first compound 8 µM) | relative viability (Avagacestat + Decitabine; first compound 0.08 µM) | relative viability (Avagacestat + Decitabine; first compound 0.253 µM) | relative viability (Avagacestat + Decitabine; first compound 0.8 µM) | relative viability (Avagacestat + Decitabine; first compound 2.53 µM) | relative viability (Avagacestat + Decitabine; first compound 8 µM)
1 | NCI-H2170 | 0.421 | 0.469 | 0.419 | 0.404 | 0.433 | 0.329 | 0.309 | 0.295 | 0.278 | 0.326 | 0.418 | 0.411 | 0.377 | 0.406 | 0.382 | 0.462 | 0.437 | 0.481 | 0.495 | 0.501
2 | LCLC-97TM1 | 0.294 | 0.264 | 0.312 | 0.185 | 0.206 | 0.184 | 0.138 | 0.139 | 0.181 | 0.145 | 0.526 | 0.472 | 0.487 | 0.481 | 0.468 | 0.25 | 0.214 | 0.229 | 0.217 | 0.203
3 | NCI-H520 | 0.21 | 0.23 | 0.198 | 0.194 | 0.201 | 0.302 | 0.291 | 0.274 | 0.229 | 0.205 | 0.648 | 0.612 | 0.494 | 0.436 | 0.529 | 0.606 | 0.501 | 0.467 | 0.453 | 0.475
4 | UMC-11 | 0.325 | 0.312 | 0.323 | 0.315 | 0.34 | 0.966 | 0.747 | 0.964 | 0.844 | 0.867 | 0.36 | 0.352 | 0.364 | 0.341 | 0.321 | 0.657 | 0.57 | 0.585 | 0.602 | 0.597
5 | BEN | 0.466 | 0.456 | 0.502 | 0.513 | 0.482 | 0.679 | 0.621 | 0.58 | 0.529 | 0.534 | 0.262 | 0.274 | 0.271 | 0.25 | 0.26 | 0.734 | 0.712 | 0.824 | 0.732 | 0.685
6 | LCLC-103H | 0.54 | 0.444 | 0.473 | 0.501 | 0.446 | 0.629 | 0.533 | 0.572 | 0.58 | 0.509 | 0.344 | 0.298 | 0.348 | 0.343 | 0.294 | 0.753 | 0.76 | 0.776 | 0.561 | 0.583
7 | COR-L23 | 0.283 | 0.266 | 0.284 | 0.276 | 0.217 | 1.07 | 0.878 | 0.774 | 0.653 | 0.397 | 0.463 | 0.444 | 0.423 | 0.435 | 0.359 | 0.519 | 0.406 | 0.434 | 0.399 | 0.39
8 | NCI-H1651 | 0.521 | 0.51 | 0.569 | 0.46 | 0.504 | 0.566 | 0.576 | 0.711 | 0.585 | 0.368 | 0.321 | 0.343 | 0.358 | 0.293 | 0.354 | 0.636 | 0.665 | 0.734 | 0.611 | 0.607
9 | SW 1573 | 0.512 | 0.422 | 0.475 | 0.337 | 0.357 | 0.771 | 0.625 | 0.524 | 0.492 | 0.444 | 0.498 | 0.431 | 0.366 | 0.369 | 0.341 | 0.539 | 0.582 | 0.664 | 0.446 | 0.59
10 | NCI-H1975 | 0.688 | 0.633 | 0.887 | 0.599 | 0.536 | 0.338 | 0.289 | 0.325 | 0.258 | 0.298 | 0.48 | 0.422 | 0.42 | 0.398 | 0.42 | 0.371 | 0.355 | 0.425 | 0.341 | 0.412
11 | NCI-H650 | 0.313 | 0.361 | 0.314 | 0.275 | 0.308 | 0.768 | 0.989 | 1.03 | 1.07 | 0.82 | 0.484 | 0.456 | 0.461 | 0.524 | 0.41 | 0.33 | 0.324 | 0.317 | 0.328 | 0.367
12 | LC-2-ad | 0.483 | 0.472 | 0.529 | 0.439 | 0.381 | 0.569 | 0.41 | 0.518 | 0.382 | 0.269 | 0.577 | 0.651 | 0.713 | 0.602 | 0.554 | 0.837 | 0.839 | 0.867 | 0.833 | 0.776
13 | NCI-H2023 | 0.363 | 0.327 | 0.33 | 0.316 | 0.294 | 0.249 | 0.225 | 0.255 | 0.184 | 0.185 | 0.474 | 0.476 | 0.453 | 0.35 | 0.368 | 0.255 | 0.257 | 0.288 | 0.221 | 0.218
14 | NCI-H1650 | 0.318 | 0.241 | 0.406 | 0.331 | 0.351 | 0.693 | 0.577 | 0.552 | 0.542 | 0.476 | 0.446 | 0.416 | 0.484 | 0.455 | 0.412 | 0.432 | 0.558 | 0.457 | 0.432 | 0.416
15 | HCC-78 | 0.493 | 0.488 | 0.511 | 0.478 | 0.441 | 0.179 | 0.222 | 0.244 | 0.192 | 0.235 | 0.71 | 0.763 | 0.811 | 0.66 | 0.724 | 0.675 | 0.726 | 0.75 | 0.683 | 0.669
16 | RERF-LC-KJ | 1.16 | 1.23 | 1.2 | 1.09 | 1.14 | 0.526 | 0.599 | 0.549 | 0.464 | 0.617 | 0.435 | 0.495 | 0.412 | 0.431 | 0.367 | 0.686 | 0.705 | 0.622 | 0.686 | 0.645
